# Assay results published in PubChem BioAssay AID977613 (Broad Institute, 2014).
# Activity calls are given as the source filed them. No rule for the calls is given here.
# Tested on: Broad 7084-01 inhibitor HTS, set 2
# Test: inhibitors in Broad screen 7084-01, set 2 (AID 977613);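 also: host cells are infected with parasite promastigotes that become internalized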
row,Compound,active concentration
1,O=S(=O)(c1cccs1)N1CCCCN2[C@H](C1)[C@H](c1ccc(/C=C/c3ccccc3)cc1)[C@@H]2CO,> 10 µM (inactive)
2,O=C(Nc1ccccc1)N1C[C@H]2[C@@H](c3ccccc31)[C@H](CO)N2Cc1ccccc1Cl,> 10 µM (inactive)
3,C/C=C/c1ccc([C@@H]2[C@H](CO)N(C(=O)CC)C23CN(CCC(F)(F)F)C3)cc1,> 10 µM (inactive)
4,COC(=O)[C@H]1[C@H](CO)[C@H]2Cn3c(ccc(-c4ccccc4F)c3=O)[C@@H]1N2,> 10 µM (inactive)
5,COc1cccc(S(=O)(=O)N2CCCCN3[C@@H](CO)[C@@H](c4ccc(C#CCC(C)C)cc4)[C@@H]3C2)c1,> 10 µM (inactive)
6,CC(C)C#Cc1ccc([C@@H]2[C@@H](CO)N3C(=O)CN(C(=O)Cc4ccccc4)C[C@H]23)cc1,> 10 µM (inactive)
7,Cc1cccc(S(=O)(=O)N2C[C@@H](O)COC[C@@H]3O[C@H](CC(=O)Nc4ccccc4)CC[C@H]32)c1,> 10 µM (inactive)
8,O=C(Cc1ccncc1)N1CC(=O)N2[C@H](CO)[C@H](c3ccc(Br)cc3)[C@@H]2C1,> 10 µM (inactive)
9,O=S(=O)(c1ccc(F)cc1)N1C[C@@H]2[C@H](c3ccccc31)[C@H](CO)N2Cc1ccc2c(c1)OCO2,> 10 µM (inactive)
10,Cc1cccc(S(=O)(=O)N2CC[C@@H]3[C@H](CO)Nc4ccc(C#Cc5ccccc5F)cc4[C@@H]32)c1,> 10 µM (inactive)
11,COc1ccc2c3c(n(C)c2c1)[C@@H](CO)NCC31CCN(Cc2cc(F)ccc2F)CC1,> 10 µM (inactive)
12,C/C=C/c1ccc([C@@H]2[C@@H](CO)N3C(=O)CN(C(=O)c4ccncc4)C[C@H]23)cc1,> 10 µM (inactive)
13,C/C=C/c1ccc([C@H]2[C@H](CO)N(S(=O)(=O)Cc3ccccc3)C23CN(C(=O)C2CCCC2)C3)cc1,> 10 µM (inactive)
14,C/C=C/c1ccc([C@@H]2[C@H]3CN(Cc4ccc(F)cc4)CC(=O)N3[C@H]2CO)cc1,> 10 µM (inactive)
15,O=C(C[C@H]1CC[C@@H]2[C@H](COC[C@H](O)CN2Cc2cc(F)ccc2F)O1)NCc1ccc(F)cc1,> 10 µM (inactive)
16,COc1ccc2c3c(n(C)c2c1)[C@H](CO)N(C(=O)Nc1ccc(F)cc1)CC31CCN(S(=O)(=O)c2cccc(C)c2)CC1,> 10 µM (inactive)
17,COCC(=O)N1CC2(CCN(C(=O)c3ccccn3)CC2)c2c(n(C)c3cc(OC)ccc23)[C@H]1CO,> 10 µM (inactive)
18,CN1C(=O)c2cc(NC(=O)Cc3cccs3)ccc2OC[C@H]2O[C@H](CC(=O)N[C@@H]3CCN(Cc4ccccc4)C3)CC[C@@H]21,> 10 µM (inactive)
19,C[C@H](NC(=O)[C@@H]1[C@@H](CO)[C@@H]2Cn3c(cccc3=O)[C@H]1N2CCC(F)(F)F)c1ccccc1,> 10 µM (inactive)
20,COC(=O)[C@@H]1[C@@H](CO)[C@@H]2Cn3c(ccc(C4=CCCC4)c3=O)[C@@H]2N1C(=O)Cc1cccnc1,> 10 µM (inactive)
21,COCC(=O)N1[C@H](CO)[C@H]2c3ccccc3NC[C@H]21,> 10 µM (inactive)
22,CCC(=O)N1CC2(C1)[C@@H](c1ccc(-c3cccc(C)c3)cc1)[C@H](CO)N2S(C)(=O)=O,> 10 µM (inactive)
23,O=C(c1cccnc1)N1C[C@H]2[C@@H](c3ccccc31)[C@H](CO)N2Cc1ccc2c(c1)OCO2,> 10 µM (inactive)
24,Cc1ccc(NC(=O)C[C@H]2CC[C@H]3[C@@H](COc4ccc(NC(=O)C5CCC5)cc4C(=O)N3C)O2)cc1,> 10 µM (inactive)

row,Compound,active concentration
1,N#C[C@H]1[C@H](c2ccccc2-c2cccc(F)c2)[C@@H](CO)N1C(=O)CN1CCOCC1,> 10 µM (inactive)
2,CC=Cc1ccc2n(c1=O)C[C@@H]1[C@@H](CO)[C@H](C(=O)NC3CCC3)[C@H]2N1S(=O)(=O)c1cn(C)cn1 (mixture of isomers),> 10 µM (inactive)
3,CCc1cnc(N2[C@H](C#N)[C@@H](c3ccccc3C3=CCCCC3)[C@@H]2CO)s1,> 10 µM (inactive)
4,O=C(C1CCOCC1)N1C[C@H]2[C@@H](c3ccccc31)[C@@H](CO)N2C(=O)Cc1ccccc1,> 10 µM (inactive)
5,O=C(C1CCCCC1)N1CC2(C1)[C@@H](c1ccccc1)[C@H](CO)N2C(=O)c1cccnc1,> 10 µM (inactive)
6,CN1CCCCN2[C@H](CO)[C@@H](c3ccc(-c4ccc(F)cc4)cc3)[C@@H]2C1,> 10 µM (inactive)
7,O=C(C[C@@H]1CC[C@@H]2[C@H](COC[C@H](O)CN2Cc2cc(F)cc(F)c2)O1)NC1CCC1,> 10 µM (inactive)
8,CN(C)CC#Cc1ccc([C@@H]2[C@@H](CO)N3C(=O)CN(C(=O)CN(C)C)C[C@H]23)cc1,> 10 µM (inactive)
9,O=C(C[C@@H]1CC[C@@H]2[C@H](COC[C@H](O)CN2C(=O)Nc2cc(Cl)cc(Cl)c2)O1)NCC1CCCCC1,> 10 µM (inactive)
10,Cc1ccccc1S(=O)(=O)N1CC[C@@H]2[C@@H](CO)Nc3ccc(C#Cc4ccccc4)cc3[C@@H]21,> 10 µM (inactive)
11,OC[C@@H]1[C@H]2c3ccccc3NC[C@H]2N1CC1CCOCC1,> 10 µM (inactive)
12,COc1ccc(-c2ccccc2[C@H]2[C@@H](CO)N(C(=O)NC(C)C)[C@H]2C#N)cc1,> 10 µM (inactive)
13,O=C(C[C@H]1CC[C@@H]2[C@H](COC[C@H](O)CN2C(=O)C2CC2)O1)NCc1ccncc1,> 10 µM (inactive)
14,COc1ccc(NC(=O)N2CCCCN3[C@H](CO)[C@@H](c4ccc(-c5ccccc5F)cc4)[C@@H]3C2)cc1,> 10 µM (inactive)
15,O=C(Nc1ccccc1)N1C[C@@H]2[C@H](c3ccccc31)[C@H](CO)N2Cc1ccccc1Cl,> 10 µM (inactive)
16,O=C(c1ccccn1)N1C[C@@H]2[C@H](c3ccccc31)[C@H](CO)N2C(=O)Nc1ccccc1F,> 10 µM (inactive)
17,CCCNC(=O)N1[C@H](CO)[C@@H]2c3ccccc3N(C(=O)C3CCC3)C[C@@H]21,> 10 µM (inactive)
18,O=C(C1CCC1)N1CC2(C1)[C@H](c1ccccc1)[C@H](CO)N2Cc1cccnc1,> 10 µM (inactive)
19,C[C@H](NC(=O)[C@H]1[C@H](CO)[C@H]2Cn3c(ccc(-c4ccncc4)c3=O)[C@H]2N1C)c1ccccc1,> 10 µM (inactive)
20,O=C1CNC[C@H]2[C@H](c3ccc(C4=CCCC4)cc3)[C@@H](CO)N12,> 10 µM (inactive)
21,CCCC#Cc1ccc([C@H]2[C@@H](CO)N3C(=O)CN(S(=O)(=O)c4ccccc4C)C[C@H]23)cc1,> 10 µM (inactive)
22,CN1CCN(C(=O)C[C@@H]2CC[C@H]3[C@@H](COC[C@@H](O)CN3CC3CC3)O2)CC1,> 10 µM (inactive)
23,COCC(=O)N1CC2(CCN(Cc3cccnc3)CC2)c2c(n(C)c3cc(OC)ccc23)[C@@H]1CO,> 10 µM (inactive)
24,O=C(C[C@@H]1CC[C@H]2[C@@H](COC[C@@H](O)CN2C(=O)Nc2cc(Cl)cc(Cl)c2)O1)NCC1CCCCC1,> 10 µM (inactive)

row,Compound,active concentration
1,O=C(Nc1ccccc1F)N1CC(=O)N2[C@H](C1)[C@H](c1ccc(-c3cccnc3)cc1)[C@@H]2CO,> 10 µM (inactive)
2,O=C(C[C@@H]1CC[C@H]2[C@@H](COC[C@@H](O)CN2S(=O)(=O)c2cccc(Cl)c2)O1)Nc1ccc(-c2ccccc2)cc1,> 10 µM (inactive)
3,COCC(=O)N1CC2(C1)[C@H](c1ccc(-c3ccc(C)cc3)cc1)[C@@H](CO)N2C(C)=O,> 10 µM (inactive)
4,CC(=O)N1CC2(C1)[C@H](c1ccc(-c3cccc(C#N)c3)cc1)[C@H](CO)N2CCC(F)(F)F,> 10 µM (inactive)
5,O=S(=O)(c1ccccc1)N1C[C@@H]2[C@H](c3ccccc31)[C@H](CO)N2Cc1ccccn1,> 10 µM (inactive)
6,O=C(C[C@@H]1CC[C@@H]2[C@H](COC[C@H](O)CN2S(=O)(=O)c2ccccc2)O1)N[C@H]1CCN(Cc2ccccc2)C1,> 10 µM (inactive)
7,N#Cc1ccc(-c2ccc3c(c2)[C@H]2[C@H](CCN2C(=O)C2CCCCC2)[C@H](CO)N3)cc1,> 10 µM (inactive)
8,CN1c2ccc(Br)cc2[C@H]2[C@H](CCN2C(=O)Cc2ccccc2)[C@H]1CO,> 10 µM (inactive)
9,O=C(Cc1ccccc1)N1CC[C@@H]2[C@H](CO)Nc3ccc(C4=CCCCC4)cc3[C@@H]21,> 10 µM (inactive)
10,CN1C(=O)c2cc(NC(=O)c3cccc(F)c3)ccc2OC[C@H]2O[C@H](CC(=O)NCC3CCCCC3)CC[C@@H]21,> 10 µM (inactive)
11,O=C(C[C@H]1CC[C@@H]2[C@H](COC[C@H](O)CN2CCc2ccccc2)O1)NCc1ccc(F)cc1,> 10 µM (inactive)
12,OC[C@@H]1[C@H](c2ccccc2)C2(CN(Cc3nccs3)C2)N1CCC(F)(F)F,> 10 µM (inactive)
13,Cn1cnc(S(=O)(=O)N2C[C@@H](O)COC[C@H]3O[C@H](CC(=O)NC4CCCC4)CC[C@@H]32)c1,> 10 µM (inactive)
14,CN1C(=O)c2cc(NC(=O)c3cccc(F)c3)ccc2OC[C@@H]2O[C@H](CC(=O)NCC3CCCCC3)CC[C@@H]21,> 10 µM (inactive)
15,CCCN1[C@@H]2c3ccc(-c4cncnc4)c(=O)n3C[C@@H]2[C@@H](CO)[C@@H]1C(=O)OC,> 10 µM (inactive)
16,CC(=O)N1CC[C@@H]2[C@H]1c1cc(-c3ccc(F)cc3)ccc1N[C@@H]2CO,> 10 µM (inactive)
17,CN1[C@H](CO)[C@@H]2c3ccccc3N(C(=O)c3ccc(F)cc3)C[C@@H]21,> 10 µM (inactive)
18,O=C(C[C@H]1CC[C@H]2[C@@H](COC[C@@H](O)CN2C(=O)c2ccccc2)O1)Nc1ccc(-c2ccccc2)cc1,> 10 µM (inactive)
19,COc1ccc(C#Cc2ccc([C@@H]3[C@@H](CO)N4C(=O)CN(C(=O)c5ccc(F)cc5)C[C@@H]34)cc2)cc1,> 10 µM (inactive)
20,O=C(C[C@H]1CC[C@@H]2[C@H](COC[C@@H](O)CN2S(=O)(=O)c2cccc(Cl)c2)O1)NC1CCC1,> 10 µM (inactive)
21,C/C=C/c1ccc([C@@H]2[C@H](CO)N(C(=O)CN(C)C)C23CN(C(=O)C2CCC2)C3)cc1,> 10 µM (inactive)
22,Cc1cccc(S(=O)(=O)N2C[C@H](O)COC[C@@H]3O[C@H](CC(=O)Nc4ccccc4)CC[C@H]32)c1,> 10 µM (inactive)
